Test results published in patent US20230064034A1, “LIGHT STABLE LIQUID DISINFECTANT COMPOSITIONS” (Onyx Lotus, LLC, priority 2021, published 2023).

System: E. coli
Experiment: Durability test: wiped aluminum coupons, surface tested for E. coli by ASTM E-2315
Format: cell-based, Escherichia coli
Settings: aluminum coupon wiped 40 times
Procedure: The durability test was designed to identify the number of times a surface can be wiped under pressure and prevent growth of pathogens on the surface after the light stable disinfectant was applied. The liquid composition contains 100 mL distilled water, 1.25 g EDTA, 0.01 g silver nitrate, and 0.5 g PVP K-30 having a 100 ppm concentration of silver. Five test solutions were evaluated: 10 mL liquid disinfectant composition, sodium hypochlorite, […] (peracetic acid), and Lysol. This 100 ppm solution of silver solution was loaded into a sprayer and sprayed onto 1×1'' sterilized aluminum or stainless-steel coupons. The aluminum coupons were wiped with a sterilized non-scratch scouring sponge or a soft cloth with a 1 kg weight on top of the non-scratch scouring sponge or a soft cloth then autoclaved. After the aluminum coupons had cooled to room temperature, the test solutions were sprayed onto the coupons. […]

OCl [Sodium hypochlorite]
reduction: 0%
